# Experimental data: patent US9439906B2, “Dosing regimen associated with long acting injectable paliperidone esters” (Janssen Pharmaceutica NV, priority 2007, dated 2016)
# Key:
# [1] = Treatment-emergent adverse events in the single-dose dose-proportionality study; details: single dose 25-150 mg-eq.
# Text: The subjects were assigned into eight treatment groups: paliperidone palmitate 25 (n=48), 50 (n=50), 100 (n=51) or 150 (n=52) mg-eq. injected into either the deltoid or gluteal muscle.
# [2] = Safety and local tolerability in the gluteal versus deltoid multiple-dose study; details: for mean injection site pain VSA score: day 1, 8 hours after injection
# [3] = Safety in phase 3 placebo-controlled study R092670-PSY-3007; format: in vivo, human; details: for average increase in body weight: placebo −0.2 kg; for Akathisia (EPS-related adverse event): placebo 4.9%; for mean change in BMI from baseline to end point: placebo −0.1
# Procedure: Safety was monitored by the evaluation of adverse events, extrapyramidal symptom (EPS) rating scales (Abnormal Involuntary Movement Scale [AIMS], Barnes Akathisia Rating Scale [BARS], Simpson and Angus Rating Scale [SAS]) scores, clinical laboratory test results, vital signs measurements, electrocardiograms (ECGs), and physical examination findings. In addition, the tolerability of injections was assessed; the investigators evaluated injection sites and the subjects assessed injection pain.
# The number and percentage of subjects with treatment-emergent adverse events were summarized. Adverse events of potential clinical interest were summarized separately, including events related to EPS or changes in serum glucose or prolactin levels.
# Changes from baseline in clinical laboratory tests, vital sign measurements, ECGs, body weight, BMI, and EPS scale scores were summarized by treatment group. Prolactin levels were summarized by sex. Subjects with potentially abnormal values or changes in clinical laboratory tests, vital signs, orthostatic parameters, and ECG parameters were summarized based on predefined criteria. Frequency distributions were presented for the investigator's evaluation of the injection site, and descriptive statistics were presented for VAS scores corresponding to the subject's evaluation of injection pain.
# [4] = Pharmacokinetic profile of gluteal versus deltoid i.m. injections of paliperidone palmitate 100 mg-eq. (four injections); format: in vivo, human
# Procedure: This study was performed to characterize and compare the pharmacokinetic profile of paliperidone palmitate (formulated as described above) following four intramuscular injections in the deltoid or gluteal muscle.
# Plasma samples for pharmacokinetic analyses were collected.
# [5] = 100 mg-eq., combined injection sites
structure (smiles),measurement,setting,value
"CCCCCCCCCCCCCCCC(=O)OC1CCCn2c1nc(C)c(CCN1CCC(c3noc4cc(F)ccc34)CC1)c2=O (racemic) [paliperidone palmitate, (±)-3-[2-[4-(6-fluoro-1,2-benzisoxazol-3-yl)-1-piperidinyl]ethyl]-6,7,8,9-tetrahydro-2-methyl-4-oxo-4H-pyrido[1,2-α]pyrimidin-9-yl hexadecanoate]",Treatment-emergent AE: headache,[1],7%
same,Treatment-emergent AE: insomnia,[1],5%
same,Treatment-emergent AE: schizophrenia,[1],6%
same,Treatment-emergent AE: tachycardia,[1],10%
same,deaths,[1],No deaths
same,subjects discontinued due to TEAs,[1],2%
same,adverse event: diastolic hypotension,[2]; [5],12%
same,adverse event: hypotension,[2]; [5],14%
same,adverse event: injection site pain,[2]; [5],14%
same,adverse event: orthostatic hypotension,[2]; [5],24%
same,deaths in the study,"[2]; 100 mg-eq., four injections",no deaths
same,serious adverse events (worsening of psychosis) that led to discontinuations,"[2]; 100 mg-eq., four injections",four
same,tolerability,"[2]; 100 mg-eq., four injections",well tolerated
same,mean injection site pain VSA score,[2]; deltoid,10.8
same,mean injection site pain VSA score,[2]; gluteal,3.3
same,"1 or more serious TEAE, (%)",[3]; 25 mg eq. group (N = 160),(9.4) %
same,"Possibly related TEAE, (%)",[3]; 25 mg eq. group (N = 160),(28.1) %
same,"TEAE leading to permanent stop, (%)",[3]; 25 mg eq. group (N = 160),(6.3) %
same,"TEAE, (%)",[3]; 25 mg eq. group (N = 160),(63.1) %
same,average increase in body weight,"[3]; 25 mg eq. group, 13 weeks",0.4 kg
same,Akathisia (EPS-related adverse event),[3]; 25 mg eq. group,1.3%
same,mean change in BMI from baseline to end point,[3]; 25 mg eq. group,0.1 kg/m^2
same,"1 or more serious TEAE, (%)",[3]; 100 mg eq. group (N = 165),(13.3) %
same,"Possibly related TEAE, (%)",[3]; 100 mg eq. group (N = 165),(29.7) %
same,"TEAE leading to permanent stop, (%)",[3]; 100 mg eq. group (N = 165),(6.1) %
same,"TEAE, (%)",[3]; 100 mg eq. group (N = 165),(60.0) %
same,average increase in body weight,"[3]; 100 mg eq. group, 13 weeks",0.7 kg
same,Akathisia (EPS-related adverse event),[3]; 100 mg eq. group,4.8%
same,mean change in BMI from baseline to end point,[3]; 100 mg eq. group,0.3 kg/m^2
same,tolerability,"[3]; 150 mg eq. deltoid then 25, 100 or 150 mg eq. Days 8, 36, 64, 13 weeks",generally well tolerated
same,"1 or more serious TEAE, (%)",[3]; 150 mg eq. group (N = 163),8.0%
same,"Possibly related TEAE, (%)",[3]; 150 mg eq. group (N = 163),31.3%
same,"TEAE leading to death, (%)",[3]; 150 mg eq. group (N = 163),0.6%
same,"TEAE leading to permanent stop, (%)",[3]; 150 mg eq. group (N = 163),8.0%
same,"TEAE, (%)",[3]; 150 mg eq. group (N = 163),63.2%
same,average increase in body weight,"[3]; 150 mg eq. group, 13 weeks",1.4 kg
same,Akathisia (EPS-related adverse event),[3]; 150 mg eq. group,5.5%
same,mean change in BMI from baseline to end point,[3]; 150 mg eq. group,0.5 kg/m^2
same,Local injection site tolerability,[3]; all dose groups,good
same,incidence of treatment-emergent EPS-related adverse events,[3]; all dose groups,low and comparable to placebo
same,ECG: clinically significant QTc prolongation,[3]; doses up to 150 mg eq.,did not demonstrate evidence of clinically significant QTc prolongation
same,subjects with maximum QTcLD value >480 ms or maximal change in QTcLD >60 ms,[3]; during the study,No subject
same,subjects with weight increase of at least 7% relative to baseline,"[3]; highest dose (150 mg eq.), placebo 5%",13%
same,prolactin levels,"[3]; versus placebo, largest increase in the 150 mg eq. group",increases in prolactin levels were observed with greater frequency
same,"median AUC∞, deltoid versus gluteal",[4]; after four injections,similar
same,Relative exposure after the fourth injection versus after the second injection,[4]; both deltoid and gluteal,slightly lower
